In patent US9416111B2, “Substituted diazine and triazine spleen tyrosine kinease (Syk) inhibitors” (Merck Sharp & Dohme Corp., priority 2012, dated 2016):
Where two headings read alike, the source gives them in different places.

Molecular target: T1, recombinant human GST-SYK (Homo sapiens, UniProt P43405)
T1 construct: purchased Carna Biosciences 08-176
Experiment: Homogeneous Time-Resolved Fluorescence (HTRF) assay for the recombinant human Syk enzyme
Type: biochemical
Conditions: GST-hSYK 5 pM, ATP 25 μM
Description: Homogeneous Time-Resolved Fluorescence (HTRF) Assay for the Recombinant Human Syk Enzyme
A recombinant GST-hSYK fusion protein was used to measure potency of compounds to inhibit human Syk activity. The recombinant human GST-SYK (Carna Biosciences #08-176) (5 pM final concentration) was incubated with various concentrations of the inhibitor diluted in DMSO (0.1% final concentration) for 10 minutes at room temperature in 15 mM Tris-HCl (pH 7.5), 0.01% tween 20, 2 mM DTT in 384 well plate format. To initiate the reaction the biotinylated substrate peptide (250 nM final concentration) that contains the phosphorylation site for Syk was added with magnesium (5 mM final concentration) and ATP (25 μM final concentration). Final volume of the reaction was 10 μL. Phosphorylation of the peptide was allowed to proceed for 45′ at room temperature. To quench the reaction and detect the phosphorylated product, 2 nM of a Europium-anti-phosphotyrosine antibody (Perkin Elmer #AD0161) and 70 nM SA-APC (Perkin-Elmer #CR130-100) were added together in 15 mM Tris pH 7.5, 40 mM EDTA, 0.01% tween 20. Final volume of the quenching solution was 10 μL. The resulting HTRF signal was measured after 30 minutes on an EnVision (Perkin-Elmer) reader using a time-resolved fluorescence protocol.

[1] = IC50 rated in classes, read-out: rhSYK Activity

Compound: COCC(Nc1ncc(-c2cc(C)cc(Nc3nccc(C(F)(F)F)n3)c2)cn1)C(=O)O (racemic) [Example 2.38, O-methyl-N-[5-(3-methyl-5-{[4-(trifluoromethyl)pyrimidin-2-yl]amino}phenyl)pyrimidin-2-yl]serine]
- IC50 [1]: < 100 nM

Compound: Cc1cc(Nc2nccc(C(F)(F)F)n2)cc(-c2cnc(NC(CO)C(=O)O)nc2)c1 (racemic) [Example 2.41, N-[5-(3-methyl-5-{[4-(trifluoromethyl)pyrimidin-2-yl]amino}phenyl)pyrimidin-2-yl]serine]
- IC50 [1]: < 100 nM

Compound: CNC(=O)C1CCCN1c1ncc(-c2cc(C)cc(Nc3nccc(C(F)(F)F)n3)c2)cn1 (racemic) [Example 2.70, N-methyl-1-[5-(3-methyl-5-{[4-(trifluoromethyl)pyrimidin-2-yl]amino}phenyl)pyrimidin-2-yl]prolinamide]
- IC50 [1]: < 100 nM

Compound: Cc1cc(Nc2nccc(C(F)(F)F)n2)cc(-c2cnc(N3CCCC3C(N)=O)nc2)c1 (racemic) [Example 2.74, 1-[5-(3-methyl-5-{[4-(trifluoromethyl)pyrimidin-2-yl]amino}phenyl)pyrimidin-2-yl]prolinamide]
- IC50 [1]: < 100 nM

Compound: Cc1cc(Nc2nccc(C(F)F)n2)cc(-c2cnc([C@@H](C)[C@H]3CC[C@H](C(=O)O)CC3)nc2)c1 (single isomer, unassigned) [Example 6.1, trans-4-{1-[5-(3-{[4-(difluoromethyl)pyrimidin-2-yl]amino}-5-methylphenyl)pyrimidin-2-yl]ethyl}cyclohexanecarboxylic acid]
- IC50 [1]: < 100 nM
- IC50 (values in text, read-out: IC50): 0.6 nM

Compound: Cc1cc(Nc2nccc(C(F)F)n2)cc(-c2cnc([C@@H](C)[C@H]3CC[C@H](C(=O)O)CC3)nc2)c1 (single isomer, unassigned) [Example 6.2, trans-4-{1-[5-(3-{[4-(difluoromethyl)pyrimidin-2-yl]amino}-5-methylphenyl)pyrimidin-2-yl]ethyl}cyclohexanecarboxylic acid]
- IC50 [1]: < 100 nM
- IC50 (values in text, read-out: IC50): 0.3 nM

Compound: Cc1cc(Nc2nccc(C(F)F)n2)cc(-c2cnc([C@H](C)[C@H]3CC[C@H](C(=O)O)[C@H](C)C3)nc2)c1 (single isomer, unassigned) [Example 7.1]
- IC50 [1]: < 100 nM

Compound: Cc1cc(Nc2nccc(C(F)F)n2)cc(-c2cnc([C@H](C)[C@H]3CC[C@H](C(=O)O)[C@H](C)C3)nc2)c1 (single isomer, unassigned) [Example 7.2]
- IC50 [1]: < 100 nM
- IC50 (values in text, read-out: IC50): < 0.5 nM

Compound: Cc1cc(Nc2nccc(C(F)F)n2)cc(-c2cnc([C@H](C)[C@H]3CC[C@H](C(=O)O)[C@H](C)C3)nc2)c1 (single isomer, unassigned) [Example 7.3]
- IC50 [1]: < 100 nM

Compound: Cc1cc(Nc2nccc(C(F)F)n2)cc(-c2cnc([C@H](C)[C@H]3CC[C@H](C(=O)O)[C@H](C)C3)nc2)c1 (single isomer, unassigned) [Example 7.4]
- IC50 [1]: < 100 nM
- IC50 (values in text, read-out: IC50): 0.8 nM

Compound: Cc1cc(Nc2nccc(C(F)F)n2)cc(-c2cnc([C@H](C)[C@H]3CC[C@H](C(=O)O)[C@H](C)C3)nc2)c1 (single isomer, unassigned) [Example 7.5]
- IC50 [1]: < 100 nM
- IC50 (values in text, read-out: IC50): 0.8 nM

Compound: Cc1cc(Nc2nccc(C(F)F)n2)cc(-c2cnc([C@H](C)[C@H]3CC[C@H](C(=O)O)[C@H](C)C3)nc2)c1 (single isomer, unassigned) [Example 7.6]
- IC50 [1]: < 100 nM
- IC50 (values in text, read-out: IC50): 0.7 nM

Compound: Cc1cc(Nc2nccc(C(F)F)n2)cc(-c2cnc([C@H](C)[C@H]3CC[C@H](C(=O)O)[C@H](C)C3)nc2)c1 (single isomer, unassigned) [Example 7.7]
- IC50 [1]: < 100 nM
- IC50 (values in text, read-out: IC50): 1.2 nM

Compound: Cc1cc(Nc2nccc(C(F)F)n2)cc(-c2cnc([C@H](C)[C@H]3CC[C@H](C(=O)O)[C@H](C)C3)nc2)c1 (single isomer, unassigned) [Example 7.8]
- IC50 [1]: < 100 nM

Compound: Cc1cc(Nc2nccc(C(F)(F)F)n2)cc(-c2cncnc2)c1 [Example 1.1, N-(3-methyl-5-pyrimidin-5-ylphenyl)-4-(trifluoromethyl)pyrimidin-2-amine]
- IC50 [1]: < 100 nM
- IC50 (values in text, read-out: IC50): 66.2 nM

Compound: COc1ncc(-c2cc(C)cc(Nc3nccc(C(F)(F)F)n3)c2)cn1 [Example 1.2, N-[3-(2-methoxypyrimidin-5-yl)-5-methylphenyl]-4-(trifluoromethyl)pyrimidin-2-amine]
- IC50 [1]: < 100 nM

Compound: Cc1cc(Nc2nccc(C(F)(F)F)n2)cc(-c2cnc(N)nc2)c1 [Example 1.3, N-[3-(2-aminopyrimidin-5-yl)-5-methylphenyl]-4-(trifluoromethyl)pyrimidin-2-amine]
- IC50 [1]: < 100 nM

Compound: COCCNc1ncc(-c2cc(C)cc(Nc3nccc(C(F)(F)F)n3)c2)cn1 [Example 1.4, N-(3-{2-[(2-methoxyethyl)amino]pyrimidin-5-yl}-5-methylphenyl)-4-(trifluoromethyl)pyrimidin-2-amine]
- IC50 [1]: < 100 nM

Compound: COc1ccnc(Nc2cc(C)cc(-c3cnc(CCC(=O)O)nc3)c2)n1 [Example 1.5, 3-(5-{3-[(4-methoxypyrimidin-2-yl)amino]-5-methylphenyl}pyrimidin-2-yl)propanoic acid]
- IC50 [1]: < 100 nM

Compound: CCOC(=O)CCc1ncc(-c2cc(C)cc(Nc3nccc(C4CC4)n3)c2)cn1 [Example 1.6, ethyl 3-(5-{3-[(4-cyclopropylpyrimidin-2-yl)amino]-5-methylphenyl}pyrimidin-2-yl)pronanoate]
- IC50 [1]: < 100 nM

Compound: CCOC(=O)CCc1ncc(-c2cc(C)cc(Nc3nccc(C)n3)c2)cn1 [Example 1.7, ethyl 3-(5-{3-methyl-5-[(4-methylpyrimidin-2-yl)amino]phenyl}pyrimidin-2-yl)propanoate]
- IC50 [1]: 100 to 1000 nM

Compound: Cc1cc(Nc2nccc(C(F)(F)F)n2)cc(-c2cnc(NC(C)(CO)CO)nc2)c1 [Example 2.1, 2-methyl-2-{[5-(3-methyl-5-{[4-(trifluoromethyl)pyrimidin-2-yl]amino}phenyl)pyrimidin-2-yl]amino}propane-1,3-diol]
- IC50 [1]: < 100 nM
- IC50 (values in text, read-out: IC50): 17.2 nM

Compound: Cc1cc(Nc2nccc(C(F)(F)F)n2)cc(-c2cnc(NC(C)(C)C(=O)O)nc2)c1 [Example 2.2, 2-methyl-N-[5-(3-methyl-5-{[4-(trifluoromethyl)pyrimidin-2-yl]amino}phenyl)pyrimidin-2-yl]alanine]
- IC50 [1]: < 100 nM

Compound: Cc1cc(Nc2nccc(C(F)(F)F)n2)cc(-c2cnc(NC3(C(=O)O)CC3)nc2)c1 [Example 2.3, 1-{[5-(3-methyl-5-{[4-(trifluoromethyl)pyrimidin-2-yl]amino}phenyl)pyrimidin-2-yl]amino}cyclopropanecarboxylic acid]
- IC50 [1]: < 100 nM

Compound: Cc1cc(Nc2nccc(C(F)(F)F)n2)cc(-c2cnc(NC3(C(=O)O)CCC3)nc2)c1 [Example 2.4, l-{[5-(3-methyl-5-{[4-(trifluoromethyl)pyrimidin-2-yl]amino}phenyl)pyrimidin-2-yl]amino}cyclobutanecarboxylic acid]
- IC50 [1]: < 100 nM

Compound: Cc1cc(Nc2nccc(C(F)(F)F)n2)cc(-c2cnc(N3CCC[C@H]3C(=O)O)nc2)c1 [Example 2.5, 1-[5-(3-methyl-5-{[4-(trifluoromethyl)pyrimidin-2-yl]amino}phenyl)pyrimidin-2-yl]-L-proline]
- IC50 [1]: < 100 nM

Compound: Cc1cc(Nc2nccc(C(F)(F)F)n2)cc(-c2cnc(N3CC[C@H]3C(=O)O)nc2)c1 [Example 2.6, (2S)-l-[5-(3-methyl-5-{[4-(trifluoromethyl)pyrimidin-2-yl]amino}phenyl)pyrimidin-2-yl]azetidine-2-carboxylic acid]
- IC50 [1]: < 100 nM

Compound: Cc1cc(Nc2nccc(C(F)(F)F)n2)cc(-c2cnc(NC3CCNC3=O)nc2)c1 (stereo not drawn) [Example 2.7, 3-{[5-(3-methyl-5-{[4-(trifluoromethyl)pyrimidin-2-yl]amino}phenyl)pyrimidin-2-yl]amino}pyrrolidin-2-one]
- IC50 [1]: < 100 nM

Compound: Cc1cc(Nc2nccc(C(F)(F)F)n2)cc(-c2cnc(NCCC(=O)O)nc2)c1 [Example 2.8, N-[5-(3-methyl-5-{[4-(trifluoromethyl)pyrimidin-2-yl]amino}phenyl)pyrimidin-2-yl]-beta-alanine]
- IC50 [1]: < 100 nM

Compound: Cc1cc(Nc2nccc(C(F)(F)F)n2)cc(-c2cnc(N(C)[C@@H](C)C(=O)O)nc2)c1 [Example 2.9, N-methyl-N-[5-(3-methyl-5-{[4-(trifluoromethyl)pyrimidin-2-yl]amino}phenyl)pyrimidin-2-yl]-L-alanine]
- IC50 [1]: < 100 nM

Compound: Cc1cc(Nc2nccc(C(F)(F)F)n2)cc(-c2cnc(N3CCC(O)C3)nc2)c1 (stereo not drawn) [Example 2.10, l-[5-(3-methyl-5-{[4-(trifluoromethyl)pyrimidin-2-yl]amino}phenyl)pyrimidin-2-yl]pyrrolidin-3-ol]
- IC50 [1]: < 100 nM

Compound: Cc1cc(Nc2nccc(C(F)(F)F)n2)cc(-c2cnc(NCCCC(=O)O)nc2)c1 [Example 2.11, 4-{[5-(3-methyl-5-{[4-(trifluoromethyl)pyrimidin-2-yl]amino}phenyl)pyrimidin-2-yl]amino}butanoic acid]
- IC50 [1]: < 100 nM

Compound: Cc1cc(Nc2nccc(C(F)(F)F)n2)cc(-c2cnc(NCC(=O)O)nc2)c1 [Example 2.12, N-[5-(3-methyl-5-{[4-(trifluoromethyl)pyrimidin-2-yl]amino}phenyl)pyrimidin-2-yl]glycine]
- IC50 [1]: < 100 nM
